Experiment: Pharmacokinetics and knee joint localization of 14C-Chlodronate after single intra-articular injection
Assay type: in vivo, rat
Conditions: for residual concentration in femoral articular cartilage / residual concentration in femoral articular cartilage as % of the value measured at t=30 minutes: first order exponential approximation; for radioactivity in Femoral Articular Cartilage / radioactivity in Tibial Articular Cartilage: osteoarthritic rats, single i.a. 0.1 mg (2 mg/ml)
Procedure: In this study the pharmacokinetics of ^14C-Chlodronate was evaluated, and the localization of the labeled compound in the knee joint following a single intra-articular injection of 0.1 mg of ^14C-Chlodronate, administered as aqueous solution in a concentration of 2 mg/ml, in sham and osteoarthritic rat models was verified.
The pharmacokinetic parameters of ^14C-Chlodronate were determined by measuring the radioactivity of blood samples collected at different timepoints from the time of injection.
The localization of the labeled compound in the knee joint was determined by leg x-rays. The fitting of radioactivity concentrations, expressed in μCi/g, was performed by using standard curves.

[1] = about two weeks after the injection
[2] = osteoarthritis rat model, 30 minutes from the injection

## O=P(O)(O)[14C](Cl)(Cl)P(=O)(O)O [^14C-Chlodronate]
168 hours (7 days) after the injection
  radioactivity mean value in the cartilage: about 25 μCi/g
168 hours after the injection
  radioactivity in cartilage as % of the value found half an hour after the injection: more than 62%
About 1 month after injection
  residual concentration in femoral articular cartilage: about 8.78 μCi/g
  residual concentration in femoral articular cartilage as % of the value measured at t=30 minutes: about 24.27%
[1]
  residual concentration in femoral articular cartilage: about 18.92 μCi/g
  residual concentration in femoral articular cartilage as % of the value measured at t=30 minutes: about 44.36%
About two weeks after the injection, first order exponential approximation of Table 7 data
  concentration in both femoral and tibial cartilage relative to the value measured at t=30 minutes: > 40%
After a few hours from the injection
  concentration of 14C-Chlodronate in the blood: very modest, practically negligible
T = 30 minutes
  radioactivity in Femoral Articular Cartilage: 42.649 μCi/g
  radioactivity in Tibial Articular Cartilage: 36.935 μCi/g
T = 6 hours
  radioactivity in Femoral Articular Cartilage: 36.163 μCi/g
  radioactivity in Tibial Articular Cartilage: 27.299 μCi/g
T = 24 hours
  radioactivity in Femoral Articular Cartilage: 34.712 μCi/g
  radioactivity in Tibial Articular Cartilage: 27.840 μCi/g
T = 72 hours
  radioactivity in Femoral Articular Cartilage: 25.561 μCi/g
  radioactivity in Tibial Articular Cartilage: 22.331 μCi/g
T = 168 hours
  radioactivity in Femoral Articular Cartilage: 28.020 μCi/g
  radioactivity in Tibial Articular Cartilage: 21.165 μCi/g
[2]
  radioactivity concentration in the articular cartilage: about 40 μCi/g
  radioactivity concentration in the synovial cavity and in the femoral and tibial bone: lower than 1 μCi/g

— patent publication US11123354B2, “Method for the treatment of osteoarthritis” (ABIOGEN PHARMA S.P.A., priority 2016, dated 2021)
